Experimental findings from patent publication US20240208992A1, “MACROCYCLES AS CFTR MODULATORS” (Idorsia Pharmaceuticals Ltd, priority 2021, published 2024) are described below.

This test deals with human F508del-CFTR (Homo sapiens, UniProt P13569, DEL508-508). Kind of test: F508del-CFTR cell surface expression (corrector activity), DiscoveRx ß-galactosidase complementation chemiluminescence assay in recombinant U2OS cell line.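 On all read-outs here: U2OS cells co-expressing ProLink-tagged F508del-CFTR and a membrane-anchored enzyme acceptor, where more surface CFTR restores β-galactosidase activity measured by chemiluminescence.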 The following applies: for EC50: EC50, F508del-CFTR cell surface expression, U2OS cells, 16h compound incubation, geomean values; for Emax: U2OS, in relation to Emax of corrector lumacaftor (=100%), arithmetic mean values.
human F508del-CFTR, sequence (P13569 with tags, fused parts or gaps DEL508-508): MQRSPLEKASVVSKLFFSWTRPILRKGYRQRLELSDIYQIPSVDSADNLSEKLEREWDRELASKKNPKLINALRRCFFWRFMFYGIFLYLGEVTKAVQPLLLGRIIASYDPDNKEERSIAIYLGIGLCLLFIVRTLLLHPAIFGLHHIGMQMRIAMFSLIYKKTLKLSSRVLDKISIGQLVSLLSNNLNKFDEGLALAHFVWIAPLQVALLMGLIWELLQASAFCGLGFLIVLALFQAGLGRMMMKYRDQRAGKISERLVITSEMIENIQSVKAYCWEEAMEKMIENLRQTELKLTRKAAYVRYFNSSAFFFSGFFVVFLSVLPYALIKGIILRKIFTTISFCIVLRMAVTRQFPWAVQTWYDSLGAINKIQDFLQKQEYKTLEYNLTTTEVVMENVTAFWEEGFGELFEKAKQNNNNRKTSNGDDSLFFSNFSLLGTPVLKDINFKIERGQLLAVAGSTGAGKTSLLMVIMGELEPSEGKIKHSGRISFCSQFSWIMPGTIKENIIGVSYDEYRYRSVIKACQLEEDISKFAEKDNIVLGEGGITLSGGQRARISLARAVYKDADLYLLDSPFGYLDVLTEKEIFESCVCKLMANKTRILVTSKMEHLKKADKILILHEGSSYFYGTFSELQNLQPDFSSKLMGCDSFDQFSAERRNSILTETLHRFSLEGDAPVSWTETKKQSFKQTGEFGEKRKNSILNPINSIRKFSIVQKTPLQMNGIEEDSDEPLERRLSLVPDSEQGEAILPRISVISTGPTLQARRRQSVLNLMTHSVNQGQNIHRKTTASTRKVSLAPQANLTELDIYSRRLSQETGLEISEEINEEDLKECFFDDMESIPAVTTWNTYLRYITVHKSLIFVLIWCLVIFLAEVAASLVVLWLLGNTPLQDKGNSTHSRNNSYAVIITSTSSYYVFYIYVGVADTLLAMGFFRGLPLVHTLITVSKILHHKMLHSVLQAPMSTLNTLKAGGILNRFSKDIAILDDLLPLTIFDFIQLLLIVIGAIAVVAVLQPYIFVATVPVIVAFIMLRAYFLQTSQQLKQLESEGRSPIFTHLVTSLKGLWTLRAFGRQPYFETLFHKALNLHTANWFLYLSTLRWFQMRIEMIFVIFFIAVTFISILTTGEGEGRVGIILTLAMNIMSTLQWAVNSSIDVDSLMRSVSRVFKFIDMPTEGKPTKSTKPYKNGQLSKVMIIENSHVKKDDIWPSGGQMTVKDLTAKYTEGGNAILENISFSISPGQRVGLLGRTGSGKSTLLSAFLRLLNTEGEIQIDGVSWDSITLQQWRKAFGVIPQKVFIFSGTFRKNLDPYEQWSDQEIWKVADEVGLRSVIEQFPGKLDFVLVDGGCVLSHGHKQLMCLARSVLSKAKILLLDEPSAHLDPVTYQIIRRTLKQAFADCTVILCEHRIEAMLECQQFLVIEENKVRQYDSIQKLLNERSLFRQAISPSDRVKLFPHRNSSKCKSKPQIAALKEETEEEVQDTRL

For the compound `COc1nccc2c1C(=O)N[C@H](C(=O)NCCc1cc(C3CC3)no1)CC(=O)N(C)[C@@H](CC(C)C)C(=O)N1CC[C@H](c3ccccc3)C[C@@H]1C(=O)N[C@H](Cc1ccccc1)CO2` [Example 673, (7S,11S,17aR,20R)-20-benzyl-N-(2-(3-cyclopropylisoxazol-5-yl)ethyl)-11-isobutyl-4-methoxy-10-methyl-5,9,12,18-tetraoxo-16-phenyl-5,6,7,8,9,10,11,12,15,16,17,17a,18,19,20,21-hexadecahydro-14H-dipyrido[2,1-f:3′,4′-p][1]oxa[4,7,10,14]tetraazacycloheptadecine-7-carboxamide], the EC50 is 67 nM and the Emax is 314%.
On to `CC(C)C[C@H]1C(=O)N2CC[C@@H](c3ccccc3)C[C@H]2C(=O)N[C@H](Cc2ccccc2)COc2cnc3ccccc3c2C(=O)N[C@H](C(=O)NCCc2cc(C3CC3)no2)CC(=O)N1C` [Example 675, (9S,13S,19aS,22R)-22-benzyl-N-(2-(3-cyclopropylisoxazol-5-yl)ethyl)-13-isobutyl-12-methyl-7,11,14,20-tetraoxo-18-phenyl-7,8,9,10,11,12,13,14,17,18,19,19a,20,21,22,23-hexadecahydro-16H-pyrido[2′,1′:6,7][1]oxa[4,7,10,14]tetraazacycloheptadecino[17,16-c]quinoline-9-carboxamide], for which the EC50 came to 194 nM and the maximum response (Emax) amounted to 159%.
As for `CC(C)C[C@H]1C(=O)N2CC[C@@H](c3ccccc3)C[C@@H]2C(=O)N[C@H](Cc2ccccc2)COc2cnc3ccccc3c2C(=O)N[C@H](C(=O)NCCc2cc(C3CC3)no2)CC(=O)N1C` [Example 676, (9S,13S,19aR,22R)-22-benzyl-N-(2-(3-cyclopropylisoxazol-5-yl)ethyl)-13-isobutyl-12-methyl-7,11,14,20-tetraoxo-18-phenyl-7,8,9,10,11,12,13,14,17,18,19,19a,20,21,22,23-hexadecahydro-16H-pyrido[2′,11:6,7][1]oxa[4,7,10,14]tetraazacycloheptadecino[17,16-c]quinoline-9-carboxamide], the EC50 came out at 62 nM and the maximum response (Emax) is 267%.
The like results for `CC(C)C[C@H]1C(=O)N2CC[C@H](c3ccccc3)C[C@@H]2C(=O)N[C@H](Cc2ccccc2)COc2cnc3ccccc3c2C(=O)N[C@H](C(=O)NCCc2cc(C3CC3)no2)CC(=O)N1C` [Example 677, (9S,13S,19aR,22R)-22-benzyl-N-(2-(3-cyclopropylisoxazol-5-yl)ethyl)-13-isobutyl-12-methyl-7,11,14,20-tetraoxo-18-phenyl-7,8,9,10,11,12,13,14,17,18,19,19a,20,21,22,23-hexadecahydro-16H-pyrido[2′,1′:6,7][1]oxa[4,7,10,14]tetraazacycloheptadecino[17,16-c]quinoline-9-carboxamide] were, in that order, 37 nM and 283%.
On to `COc1nccc2c1C(=O)N[C@H](C(=O)NCCc1cc(C)no1)CC(=O)N(C)[C@@H](CC(C)C)C(=O)N1Cc3ccccc3C[C@@H]1C(=O)N[C@H](Cc1ccccc1)CO2` [Example 678, (7S,11S,19aR,22R)-22-benzyl-11-isobutyl-4-methoxy-10-methyl-N-(2-(3-methylisoxazol-5-yl)ethyl)-5,9,12,20-tetraoxo-5,6,7,8,9,10,11,12,19,19a,20,21,22,23-tetradecahydro-14H-pyrido[3′,4′:16,17][1]oxa[4,7,10,14]tetraazacycloheptadecino[7,6-b]isoquinoline-7-carboxamide], for which the EC50 is 355 nM and the maximum response (Emax) came out at 296%.
Consider `COc1nccc2c1C(=O)N[C@H](C(=O)NCCc1cc(C)no1)CC(=O)N(C)[C@@H](CC(C)C)C(=O)N1CCc3ccccc3[C@@H]1C(=O)N[C@H](Cc1ccccc1)CO2` [Example 679, (7S,11S,19bR,22R)-22-benzyl-11-isobutyl-4-methoxy-10-methyl-N-(2-(3-methylisoxazol-5-yl)ethyl)-5,9,12,20-tetraoxo-5,6,7,8,9,10,11,12,15,19b,20,21,22,23-tetradecahydro-14H-pyrido[3′,4′:16,17][1]oxa[4,7,10,14]tetraazacycloheptadecino[6,7-a]isoquinoline-7-carboxamide], for which the half-maximal effective concentration (EC50) is 869 nM and the maximal effect (Emax) was found to be 277%.
For the compound `COc1cccc(CCNC(=O)[C@@H]2CC(=O)N(C)[C@@H](CC(C)C)C(=O)N(C)[C@H](C)C(=O)N[C@H](Cc3ccccc3)COc3cnc4ccccc4c3C(=O)N2)c1` [Example 680, (3S,7S,10R,13R)-13-benzyl-7-isobutyl-N-(3-methoxyphenethyl)-6,9,10-trimethyl-1,5,8,11-tetraoxo-1,2,3,4,5,6,7,8,9,10,11,12,13,14-tetradecahydro-[1]oxa[4,7,10,14]tetraazacycloheptadecino[17,16-c]quinoline-3-carboxamide], the EC50 is 448 nM and the Emax was 340%.
In the case of `COc1nccc2c1C(=O)N[C@H](C(=O)NCCc1noc(C3CC3)n1)CC(=O)N(C)[C@@H](CC(C)C)C(=O)N(C)[C@H](c1ccccc1)C(=O)N[C@H](Cc1ccccc1)CO2` [Example 681, (3R,6R,9S,13S)-3-benzyl-N-(2-(5-cyclopropyl-1,2,4-oxadiazol-3-yl)ethyl)-9-isobutyl-16-methoxy-7,10-dimethyl-5,8,11,15-tetraoxo-6-phenyl-2,3,4,5,6,7,8,9,10,11,12,13,14,15-tetradecahydropyrido[3,4-p][1]oxa[4,7,10,14]tetraazacycloheptadecine-13-carboxamide], the EC50 was 447 nM and the Emax turned out to be 313%.
`COc1nccc2c1C(=O)N[C@H](C(=O)NCCc1cc(C3CC3)on1)CC(=O)N(C)[C@@H](CC(C)C)C(=O)N(C)[C@H](CC1CCC(F)(F)CC1)C(=O)N[C@H](Cc1ccccc1)CO2` [Example 682, (3R,6R,9S,13S)-3-benzyl-N-(2-(5-cyclopropylisoxazol-3-yl)ethyl)-6-((4,4-difluorocyclohexyl)methyl)-9-isobutyl-16-methoxy-7,10-dimethyl-5,8,11,15-tetraoxo-2,3,4,5,6,7,8,9,10,11,12,13,14,15-tetradecahydropyrido[3,4-p][1]oxa[4,7,10,14]tetraazacycloheptadecine-13-carboxamide]: the EC50 was found to be 110 nM and the Emax came out at 351%.
On to `COc1nc(C)cc2c1C(=O)N[C@H](C(=O)NCCc1cc(C)no1)CC(=O)N(C)[C@@H](CC(C)C)C(=O)N1CCC3(CC3)C[C@@H]1C(=O)N[C@H](Cc1ccccc1)CO2` [Example 683, (7′S,11′S,17a′R,20′R)-20′-benzyl-11′-isobutyl-4′-methoxy-2′,10′-dimethyl-N-(2-(3-methylisoxazol-5-yl)ethyl)-5′,9′,12′,18′-tetraoxo-5′,6′,7′,8′,9′,10′,11′,12′,14′,15′,17′,17a′,18′,19′,20′,21′-hexadecahydrospiro[cyclopropane-1,16′-dipyrido[2,1-f:3′,4′-p][1]oxa[4,7,10,14]tetraazacycloheptadecine]-7′-carboxamide], for which the EC50 came to 362 nM and the Emax was found to be 262%.
